In patent publication US20210161147A1, “BROAD SPECTRUM COSMETIC PRESERVATIVE SYSTEM” (priority 2019, published 2021):

Test system: microbes (bacteria and fungi)
Test: USP 51, Antimicrobial Effectiveness Test
Assay type: cell-based
Details: combined with 12.5 ppm colloidal silver; aqueous solution containing seaweed extract

`CS(C)(=O)=O` [MSM, methylsulfonylmethane] was tested. Which “sufficient concentration of MSM for effective cosmetic preservation per USP 51” value did it give?
The value was 10 % (w/w).
